{"source": "PubChem BioAssay AID602267", "about": "(Broad Institute, 2012)", "note": "Calls of active or inactive are those of the source.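 The calls were made as follows: active = signal falls with dose and the fitted half-maximal concentration is at or below twice the top valid tested dose; inconclusive = flat curve with 30 to 70% inhibition, or poor fit; inactive = wrong direction, flat within 30%, or potency beyond limit.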", "data": [{"molecular_target": "Golgi-associated PDZ and coiled-coil motif-containing protein (Homo sapiens) (UniProt Q9HD26)", "experiment": "blockers of CAL PDZ ligand groove binding – biochemical, fluorescence polarization, untagged CAL PDZ, cherry-pick, dose response (AID 602267);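 as to activity change, negative = inhibition: 0% = DMSO neutral wells and -100% = excess unlabeled competitor peptide wells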", "details": "purified CAL PDZ, TMR-peptide fluorescence polarization, 1 h", "units": {"AC50": "µM"}, "values": [{"compound": "COc1ccc(S(=O)(=O)Nc2cc(SCC(=O)O)c(O)c3ccccc23)cc1", "AC50": 34.2}]}, {"molecular_target": "Golgi-associated PDZ and coiled-coil motif-containing protein (Homo sapiens) (UniProt Q9HD26)", "experiment": "blockers of CAL PDZ ligand groove binding – biochemical, fluorescence polarization, untagged CAL PDZ, cherry-pick, dose response (AID 602267)", "details": "purified CAL PDZ, TMR-peptide fluorescence polarization, 1 h; at 16 µM (top of the series)", "values": [{"compound": "COc1cccc(NC(=O)N2CCCCCC2)c1", "activity change, negative = inhibition": "inactive"}, {"compound": "COc1ccc2c(c1)c(=Cc1ccc(N(C)C)cc1)c1cc(-c3ccccc3)[n+](C)n12", "activity change, negative = inhibition": "inactive"}, {"compound": "O=C(c1ccccc1)C(c1ccccc1)c1ccccc1", "activity change, negative = inhibition": "inactive"}, {"compound": "COc1cc(C2NC(=O)NC(C)=C2C(=O)OC2CCCCC2)cc(Br)c1O", "note": "(centres undefined)", "activity change, negative = inhibition": "inactive"}, {"compound": "COCCCNC(=O)c1c[nH]c2ccc(S(=O)(=O)N3CCC(C)CC3)cc2c1=O", "activity change, negative = inhibition": "inactive"}]}, {"molecular_target": "Golgi-associated PDZ and coiled-coil motif-containing protein (Homo sapiens) (UniProt Q9HD26)", "experiment": "blockers of CAL PDZ ligand groove binding – biochemical, fluorescence polarization, untagged CAL PDZ, cherry-pick, dose response (AID 602267)", "details": "purified CAL PDZ, TMR-peptide fluorescence polarization, 1 h; at 50 µM (top of the series)", "values": [{"compound": "COc1cc(OC)cc(C(=O)N[C@H](C(=O)Nc2nc3ccc(S(C)(=O)=O)cc3s2)C(C)C)c1", "activity change, negative = inhibition": "inactive"}, {"compound": "COc1ccc(N2CCN(C3CCCN(Cc4ccc(F)cc4)C3)CC2)cc1", "note": "(centres undefined)", "activity change, negative = inhibition": "inactive"}, {"compound": "O=C(Nc1ccc([N+](=O)[O-])cc1)Nc1cnccn1", "activity change, negative = inhibition": "inactive"}, {"compound": "Cc1c(Cl)c(C(F)(F)F)nn1CC(=O)NCc1ccco1", "activity change, negative = inhibition": "inactive"}, {"compound": "CS(=O)(=O)c1ccc(Cl)c(NC(=O)COC(=O)c2c(Cl)cccc2Cl)c1", "activity change, negative = inhibition": "inactive"}, {"compound": "Fc1ccc(-n2c(-c3ccc4ccccc4n3)n[nH]c2=S)cc1Cl", "activity change, negative = inhibition": "inactive"}, {"compound": "C=CCNC(=O)CC1Nc2c3ccccc3nc(=S)n2C1=O", "note": "(centres undefined)", "activity change, negative = inhibition": "inactive"}, {"compound": "COc1ccc(/C=C2\\N=C(c3ccc(C)cc3)OC2=O)cc1", "activity change, negative = inhibition": "inactive"}, {"compound": "O=C(COc1ccc(Cl)cc1Cl)Nc1nnc(C2=COCCO2)o1", "activity change, negative = inhibition": "inactive"}, {"compound": "COc1ccccc1NC(=O)N(c1c(N)n(Cc2ccccc2)c(=O)[nH]c1=O)C1CCCC1", "activity change, negative = inhibition": "inactive"}, {"compound": "O=[N+]([O-])c1ccccc1/C=N/Nc1nc(N2CCCC2)nc(N2CCCC2)n1", "activity change, negative = inhibition": "inactive"}, {"compound": "N#C/C(=C\\c1c[nH]c2ccccc12)C(=O)NC1CC1", "activity change, negative = inhibition": "inactive"}, {"compound": "Cc1ccccc1N1CCN(S(=O)(=O)c2ccccc2)CC1", "activity change, negative = inhibition": "inactive"}, {"compound": "O=C(O)c1[nH]c2ccccc2c1C(c1ccccc1)c1c(C(=O)O)[nH]c2ccccc12", "activity change, negative = inhibition": "inactive"}, {"compound": "O=C(CNCc1ccccc1)Nc1ccc(F)cc1", "activity change, negative = inhibition": "inactive"}, {"compound": "COc1ccc(OC)c(NC(=O)CS(=O)(=O)Cc2ccccc2)c1", "activity change, negative = inhibition": "inactive"}, {"compound": "CC(=O)NC(Cc1ccccc1)C(C)=O", "note": "(centres undefined)", "activity change, negative = inhibition": "inactive"}, {"compound": "COc1cc(S(=O)(=O)n2nc(C)cc2C)ccc1Cl", "activity change, negative = inhibition": "inactive"}, {"compound": "CC12CNCC(C)(CN(C3(O)C(=O)Nc4ccc(Br)cc43)C1)C2=O", "note": "(centres undefined)", "activity change, negative = inhibition": "inactive"}, {"compound": "CCn1ncc(Br)c1C(=O)Nc1cccc(F)c1", "activity change, negative = inhibition": "inactive"}, {"compound": "O=C(CCCn1c(=S)[nH]c2cc3c(cc2c1=O)OCO3)N1CCN(c2ccc(Cl)cc2)CC1", "activity change, negative = inhibition": "inactive"}, {"compound": "Cc1cc(SCC(=O)OCC(=O)c2c(N)n(C)c(=O)n(C)c2=O)c(C)cc1Br", "activity change, negative = inhibition": "inactive"}, {"compound": "CC(C)n1cc(C(=O)N2CCCC(N3CCN(c4ccc(F)cc4)CC3)C2)cn1", "note": "(centres undefined)", "activity change, negative = inhibition": "inactive"}, {"compound": "c1ccc2[nH]c(CCNC3CCCCC3)nc2c1", "activity change, negative = inhibition": "inactive"}, {"compound": "CC(=O)NC1C(=O)N(CCN2CCOCC2)c2ccc(Cl)cc21", "note": "(centres undefined)", "activity change, negative = inhibition": "inactive"}, {"compound": "C=CCOc1ccc2ccccc2c1CNn1cn[nH]c1=S", "activity change, negative = inhibition": "inactive"}, {"compound": "COc1cc(/C=C2\\C(=O)NC(=O)N(c3ccccc3)C2=O)c([N+](=O)[O-])cc1OC", "activity change, negative = inhibition": "inactive"}, {"compound": "O=C(Nc1nccs1)c1ccc(F)c(S(=O)(=O)N2CCOCC2)c1", "activity change, negative = inhibition": "inactive"}, {"compound": "C/C(=C/c1ccccc1)C(=O)N1CCN(c2ccccc2)CC1", "activity change, negative = inhibition": "inactive"}, {"compound": "CCc1noc(C)c1C(=O)N1CCCC(CCC(=O)NCc2ccc(F)c(F)c2)C1", "note": "(centres undefined)", "activity change, negative = inhibition": "inactive"}, {"compound": "CN=c1scc(C)n1/N=C/c1cc(Br)c(O)c(Br)c1", "activity change, negative = inhibition": "inactive"}, {"compound": "Cc1c(Cl)c(C(=O)N2CCCC2)nn1C", "activity change, negative = inhibition": "inactive"}, {"compound": "COc1cc(C(=O)NC(C)CCc2ccccc2)cc(OC)c1OC", "note": "(centres undefined)", "activity change, negative = inhibition": "inactive"}, {"compound": "Cc1nn2c3ccccc3nc2c2ccccc12", "activity change, negative = inhibition": "inactive"}, {"compound": "O=C(c1ccccc1)c1c2c(cc3sc4ccccc4[n+]13)-c1cccc3cccc-2c13", "activity change, negative = inhibition": "inactive"}, {"compound": "COC(=O)C1CCN(C(=O)/C(C)=C\\c2ccccc2)CC1", "activity change, negative = inhibition": "inactive"}, {"compound": "Cc1ccc(NC(=O)CN(C)CC(=O)Nc2cccc(F)c2)cc1S(=O)(=O)N1CCCCCC1", "activity change, negative = inhibition": "inactive"}, {"compound": "COc1cc(C(=O)ON=C2C(C)=CC(=O)C=C2C)cc(OC)c1OC", "activity change, negative = inhibition": "inactive"}, {"compound": "Cc1ccc(F)cc1N=Cc1c(O)c2ccccc2oc1=O", "activity change, negative = inhibition": "inactive"}, {"compound": "COCC(=O)Nc1ccc2nc3n(c(=O)c2c1)CCCCC3", "activity change, negative = inhibition": "inactive"}, {"compound": "CCCC(=O)OCC(=O)Nc1ccccc1C#N", "activity change, negative = inhibition": "inactive"}, {"compound": "CCCOc1ccc(S(=O)(=O)Nc2ccccn2)c2ccccc12", "activity change, negative = inhibition": "inactive"}, {"compound": "CC(CCCC(C)(C)O)NC(=O)c1ccc(OC2CCN(C(=O)C3CC3)CC2)cc1", "note": "(centres undefined)", "activity change, negative = inhibition": "inactive"}, {"compound": "CCn1c(=O)c(C(C)=O)c(O)c2ccccc21", "activity change, negative = inhibition": "inactive"}, {"compound": "Cc1ccc(C(=O)Nc2ccccc2)cc1S(=O)(=O)N1CCN(C)CC1", "activity change, negative = inhibition": "inactive"}, {"compound": "Cc1cc(C(=O)Nc2ccccc2Cl)c2ccccc2n1", "activity change, negative = inhibition": "inactive"}, {"compound": "Cc1ccc2nc(NCc3ccc(F)cc3)c3nncn3c2c1", "activity change, negative = inhibition": "inactive"}, {"compound": "CN(C)c1ccc(C=c2c3ccccc3n3c2cc(-c2ccccc2)[n+]3C)cc1", "activity change, negative = inhibition": "inactive"}, {"compound": "Cc1ccc2nc(NC(=O)COC(=O)c3ccncc3)sc2c1", "activity change, negative = inhibition": "inactive"}, {"compound": "O=C(COC(=O)CNC(=O)c1cccc([N+](=O)[O-])c1)NCc1ccco1", "activity change, negative = inhibition": "inactive"}, {"compound": "CCOc1ccc(C2=Nn3c(nnc3-c3ccco3)SC2)cc1", "activity change, negative = inhibition": "inactive"}, {"compound": "CCC(=O)N1CCC(C(N)=O)(N2CCCCC2)CC1", "activity change, negative = inhibition": "inactive"}, {"compound": "CCc1nc2ccccc2c(C(=O)Oc2cccc3cccnc23)c1C", "activity change, negative = inhibition": "inactive"}, {"compound": "O=C(NCc1cccs1)c1cccn2c(=O)c3sccc3nc12", "activity change, negative = inhibition": "inactive"}, {"compound": "C=CCOC(=O)C1=C(C)Nc2nc3ccccc3n2C1c1ccncc1", "note": "(centres undefined)", "activity change, negative = inhibition": "inactive"}, {"compound": "CC1CCN(C(=O)COC(=O)c2cccs2)CC1", "activity change, negative = inhibition": "inactive"}, {"compound": "C/C(CC(=O)Nc1ccc(C)c(Cl)c1)=N\\NC(=O)Cc1cnc(N)s1", "activity change, negative = inhibition": "inactive"}, {"compound": "COCc1cc(C)nc(SCc2ccccc2)c1C#N", "activity change, negative = inhibition": "inactive"}, {"compound": "COc1ccc(S(=O)(=O)N2CC(=O)Nc3ccccc32)cc1F", "activity change, negative = inhibition": "inactive"}, {"compound": "FC(F)(F)Oc1ccc(NC(=S)NCCCN2CCOCC2)cc1", "activity change, negative = inhibition": "inactive"}, {"compound": "O=C(CSc1nc2c(sc3ccccc32)c(=O)n1Cc1ccccc1)NCC1CCCO1", "note": "(centres undefined)", "activity change, negative = inhibition": "inactive"}, {"compound": "COc1ccc(CN2CCCC(N3CCN(c4cccc(Cl)c4)CC3)C2)cc1OC", "note": "(centres undefined)", "activity change, negative = inhibition": "inactive"}, {"compound": "CCOC(=O)c1ccc(N=C2SC(C(=O)NC)CC(=O)N2Cc2ccc(F)cc2)cc1", "note": "(centres undefined)", "activity change, negative = inhibition": "inactive"}, {"compound": "O=C(NCc1ccc(Cl)cc1)C(=O)NCC1OCCN1C(=O)c1ccc(Cl)cc1", "note": "(centres undefined)", "activity change, negative = inhibition": "inactive"}, {"compound": "CCOC(=O)CCC(=O)Nc1ccc(S(=O)(=O)N2CCC(C)CC2)cc1", "activity change, negative = inhibition": "inactive"}, {"compound": "CN(C)c1ccc(C(=O)OCC(=O)NC2CCCCCC2)cc1", "activity change, negative = inhibition": "inactive"}, {"compound": "CSc1ccccc1NC(=O)C1CC(c2c(F)cccc2Cl)=NO1", "note": "(centres undefined)", "activity change, negative = inhibition": "inactive"}, {"compound": "O=C(O)c1ccc(Oc2cc(Oc3ccc(C(=O)O)cc3)cc([N+](=O)[O-])c2)cc1", "activity change, negative = inhibition": "inactive"}, {"compound": "CCOCCCNC(=O)c1ccc2c(=O)n(Cc3ccc4c(c3)OCO4)c(=S)[nH]c2c1", "activity change, negative = inhibition": "inactive"}, {"compound": "O=S(=O)(c1cccc2ccccc12)N1CCCCC1", "activity change, negative = inhibition": "inactive"}, {"compound": "O=C(NCCc1ccccc1)C1CCC(=O)N(CCCN2CCCC2=O)C1", "note": "(centres undefined)", "activity change, negative = inhibition": "inactive"}, {"compound": "CC(C)c1ccc(CNC(=O)C(=O)NCCCn2ccnc2)cc1", "activity change, negative = inhibition": "inactive"}, {"compound": "Cc1cccc(Nc2nc(-c3ccc(F)cc3)cs2)n1", "activity change, negative = inhibition": "inactive"}, {"compound": "CC1=NN(C(N)=S)C(=O)C1N=Nc1ccc(Cl)cc1", "note": "(centres undefined)", "activity change, negative = inhibition": "inactive"}, {"compound": "COCCN(C(=S)Nc1ccccc1OC)C1CCN(C(C)C)CC1", "activity change, negative = inhibition": "inactive"}, {"compound": "CCOC(=O)c1nc(NCCc2ccccc2)sc1C", "activity change, negative = inhibition": "inactive"}, {"compound": "Cc1ccccc1S(=O)(=O)NC(=NCc1ccc(F)cc1)c1ccccc1", "activity change, negative = inhibition": "inactive"}, {"compound": "CCCc1cc2c(cc1NC(=O)c1ccco1)OCO2", "activity change, negative = inhibition": "inactive"}]}]}
